From patent US10597388B2, “Pyridazinone herbicides” (FMC CORPORATION, priority 2014, dated 2020)
Read-outs that look alike come from different tables or passages of the source.

Columns and labels:
Type in all cases: in vivo
[1] = system: barnyardgrass (Echinochloa crus-galli); assay: Test C greenhouse herbicide test, pre- and postemergence
Excerpt: Seeds of plant species selected from blackgrass (Alopecurus myosuroides), ryegrass, Italian (Italian ryegrass, Lolium multiflorum), wheat (winter wheat, Triticum aestivum), galium (catchweed bedstraw, Galium aparine), corn (Zea mays), large crabgrass, large (large crabgrass, Digitaria sanguinalis), foxtail, giant (giant foxtail, Setaria faberii), johnsongrass (Sorghum halepense), lambsquarters (Chenopodium album), morningglory (Ipomoea coccinea), nutsedge, yellow (yellow nutsedge, Cyperus esculentus), pigweed (Amaranthus retroflexus), ragweed (common ragweed, Ambrosia elatior), soybean (Glycine max), barnyardgrass (Echinochloa crus-galli), oilseed rape (Brassica napus), waterhemp (common waterhemp, Amaranthus rudis), and velvetleaf (Abutilon theophrasti) were planted into a blend of loam soil and sand and treated preemergence with test chemicals formulated in a non-phytotoxic solvent mixture which included a surfactant.
At the same time, plants selected from these crop and weed species and also chickweed (common chickweed, Stellaria media), kochia (Kochia scoparia), and oat, wild (wild oat, Avena fatua), were planted in pots containing Redi-Earth® planting medium (Scotts Company, 14111 Scottslawn Road, Marysville, Ohio 43041) comprising spaghnum peat moss, vermiculite, wetting agent and starter nutrients and treated with postemergence applications of test chemicals formulated in the same manner. Plants ranged in height from 2 to 18 cm (1- to 4-leaf stage) for postemergence treatments. Treated plants and controls were maintained in a greenhouse for 13 to 15 d, after which time all species were compared to controls and visually evaluated. Plant response ratings, summarized in Table C, are based on a scale of 0 to 100 where 0 is no effect and 100 is complete control. A dash (-) response means no test result.

[2] = system: pigweed (Amaranthus retroflexus); assay: Test A greenhouse herbicide test, pre- and postemergence; details: Amaranthus retroflexus, 240 h; for pest or weed control at 125 g/ha: 125 g ai/ha; for pest or weed control at 500 g/ha: 500 g ai/ha, 0 to 100 scale
Procedure, shortened: (§1)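 Seeds in loam–sand blend received a preemergence directed soil spray; plants at 2–10 cm, one- to two-leaf stage, received postemergence sprays. Compounds in a non-phytotoxic solvent with surfactant. After about 10 d in a greenhouse, injury rated visually versus untreated controls on a 0–100 scale (100 = complete control).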

[3] = system: kochia (Kochia scoparia); assay: as above; details: Bassia scoparia, 240 h; for pest or weed control at 125 g/ha: 125 g ai/ha; for pest or weed control at 500 g/ha: 500 g ai/ha, 0 to 100 scale
Procedure, shortened: as §1

[4] = system: foxtail, giant (giant foxtail, Setaria faberii); assay: as above; details: Setaria faberi, 240 h; for pest or weed control at 125 g/ha: 125 g ai/ha; for pest or weed control at 500 g/ha: 500 g ai/ha, 0 to 100 scale
Procedure, shortened: as §1

[5] = system: wheat (Triticum aestivum); assay: as above; details: Triticum aestivum, post-emergence, 240 h, Postemergence
Procedure, shortened: as §1

[6] = system: barnyardgrass (Echinochloa crus-galli); assay: as above; details: Echinochloa crus-galli, 240 h; for pest or weed control at 125 g/ha: 125 g ai/ha; for pest or weed control at 500 g/ha: 500 g ai/ha, 0 to 100 scale
Procedure, shortened: as §1

[7] = system: ryegrass, Italian (Italian ryegrass, Lolium multiflorum); assay: as above; details: Lolium multiflorum, 240 h; for pest or weed control at 125 g/ha: 125 g ai/ha
Procedure, shortened: as §1

[8] = system: ragweed (common ragweed, Ambrosia elatior); assay: as above; details: Ambrosia artemisiifolia, 240 h; for pest or weed control at 125 g/ha: 125 g ai/ha; for pest or weed control at 500 g/ha: 500 g ai/ha, 0 to 100 scale
Procedure, shortened: as §1

[9] = system: corn (Zea mays); assay: as above; details: Zea mays, post-emergence, 240 h, Postemergence
Procedure, shortened: as §1

[10] = system: blackgrass (Alopecurus myosuroides); assay: Test A greenhouse herbicide test, postemergence; details: Alopecurus myosuroides, post-emergence, 240 h
Procedure, shortened: (§2)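 Visual injury score, 0 (no effect) to 100 (complete control), versus untreated controls roughly 10 d after postemergence spray; plants at one- to two-leaf stage, 2 to 10 cm tall, in loam soil and sand, kept in greenhouse.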

[11] = system: galium (catchweed bedstraw, Galium aparine); assay: Test A greenhouse herbicide test, postemergence; details: Galium, post-emergence, 240 h
Procedure, shortened: as §2

CC(=O)Oc1c(C)nn(C)c(=O)c1-c1c(C)oc2ccc(C)cc12 [Compound 14, 5-(acetyloxy)-4-(2,5-dimethyl-3-benzofuranyl)-2,6-dimethyl-3(2H)-pyridazinone]
Barnyardgrass plant response rating ([1]; Postemergence, 31 g ai/ha, 0 to 100 scale (0 no effect, 100 complete control)): 5 | Plant response rating, Barnyardgrass ([1]; Postemergence, 125 g ai/ha, scale 0 to 100, 0 is no effect, 100 is complete control): 55 | Plant response rating, Barnyardgrass ([1]; Postemergence, 250 g ai/ha, scale 0 to 100, 0 no effect, 100 complete control, 13 to 15 d): 60 | Barnyardgrass plant response rating ([1]; postemergence, 62 g ai/ha, scale 0 to 100, 0 no effect, 100 complete control): 5 | pest or weed control at 125 g/ha ([2]; post-emergence, Postemergence, visual rating after approx. 10 d, 0 to 100 scale (0 no effect, 100 complete control), read-out: Plant response rating, Pigweed): 60% | pest or weed control at 500 g/ha ([2]; post-emergence, Postemergence, 0 is no effect, 100 is complete control, read-out: Pigweed plant response rating): 80% | pest or weed control at 125 g/ha ([2]; pre-emergence, Preemergence, 0 to 100 scale where 0 is no effect and 100 is complete control, read-out: Pigweed plant response rating): 70% | pest or weed control at 500 g/ha ([2]; pre-emergence, Preemergence, 0 no effect, 100 complete control, read-out: Plant response rating, Pigweed): 90% | pest or weed control at 125 g/ha ([3]; post-emergence, Postemergence, visual rating after approx. 10 d, 0 to 100 scale (0 no effect, 100 complete control), read-out: Plant response rating, Kochia): 80% | pest or weed control at 500 g/ha ([3]; post-emergence, Postemergence, 0 is no effect, 100 is complete control, read-out: Kochia plant response rating): 90% | pest or weed control at 125 g/ha ([3]; pre-emergence, Preemergence, 0 to 100 scale where 0 is no effect and 100 is complete control, read-out: Kochia plant response rating): 10% | pest or weed control at 500 g/ha ([3]; pre-emergence, Preemergence, 0 no effect, 100 complete control, read-out: Plant response rating, Kochia): 50% | pest or weed control at 125 g/ha ([4]; post-emergence, Postemergence, visual rating after approx. 10 d, 0 to 100 scale (0 no effect, 100 complete control), read-out: Plant response rating, Foxtail, Giant): 10% | pest or weed control at 500 g/ha ([4]; post-emergence, Postemergence, 0 is no effect, 100 is complete control, read-out: Foxtail, Giant plant response rating): 70% | pest or weed control at 125 g/ha ([4]; pre-emergence, Preemergence, 0 to 100 scale where 0 is no effect and 100 is complete control, read-out: Foxtail, Giant plant response rating): 0% | pest or weed control at 500 g/ha ([4]; pre-emergence, Preemergence, 0 no effect, 100 complete control, read-out: Plant response rating, Foxtail, Giant): 10% | plant injury at 125 g/ha ([5]; 125 g ai/ha, visual rating after approx. 10 d, 0 to 100 scale (0 no effect, 100 complete control), read-out: Plant response rating, Wheat): 0% | plant injury at 500 g/ha ([5]; 500 g ai/ha, 0 to 100 scale, 0 is no effect, 100 is complete control, read-out: Wheat plant response rating): 0% | pest or weed control at 125 g/ha ([6]; post-emergence, Postemergence, visual rating after approx. 10 d, 0 to 100 scale (0 no effect, 100 complete control), read-out: Plant response rating, Barnyardgrass): 10% | pest or weed control at 500 g/ha ([6]; post-emergence, Postemergence, 0 is no effect, 100 is complete control, read-out: Barnyardgrass plant response rating): 70% | pest or weed control at 125 g/ha ([6]; pre-emergence, Preemergence, 0 to 100 scale where 0 is no effect and 100 is complete control, read-out: Barnyardgrass plant response rating): 0% | pest or weed control at 500 g/ha ([6]; pre-emergence, Preemergence, 0 no effect, 100 complete control, read-out: Plant response rating, Barnyardgrass): 40% | pest or weed control at 125 g/ha ([7]; post-emergence, Postemergence, visual rating after approx. 10 d, 0 to 100 scale (0 no effect, 100 complete control), read-out: Plant response rating, Ryegrass, Italian): 60% | pest or weed control at 500 g/ha ([7]; post-emergence, Postemergence, 500 g ai/ha, 0 to 100 scale, 0 is no effect, 100 is complete control, read-out: Ryegrass, Italian plant response rating): 80% | pest or weed control at 125 g/ha ([7]; pre-emergence, Preemergence, 0 to 100 scale where 0 is no effect and 100 is complete control, read-out: Ryegrass, Italian plant response rating): 30% | pest or weed control at 125 g/ha ([8]; post-emergence, Postemergence, visual rating after approx. 10 d, 0 to 100 scale (0 no effect, 100 complete control), read-out: Plant response rating, Ragweed): 70% | pest or weed control at 500 g/ha ([8]; post-emergence, Postemergence, 0 is no effect, 100 is complete control, read-out: Ragweed plant response rating): 90% | pest or weed control at 125 g/ha ([8]; pre-emergence, Preemergence, 0 to 100 scale where 0 is no effect and 100 is complete control, read-out: Ragweed plant response rating): 0% | pest or weed control at 500 g/ha ([8]; pre-emergence, Preemergence, 0 no effect, 100 complete control, read-out: Plant response rating, Ragweed): 30% | Corn plant response rating (crop injury, 0 = no effect, 100 = complete kill) at 125 g/ha ([9]; 125 g ai/ha, visual rating after approx. 10 d, 0 to 100 scale (0 no effect, 100 complete control)): 0% | plant injury at 500 g/ha ([9]; 500 g ai/ha, 0 to 100 scale, 0 is no effect, 100 is complete control, read-out: Corn plant response rating): 20% | pest or weed control at 125 g/ha ([10]; 125 g ai/ha, visual rating after approx. 10 d, 0 to 100 scale (0 no effect, 100 complete control), read-out: Plant response rating, Blackgrass): 20% | pest or weed control at 500 g/ha ([10]; 500 g ai/ha, 0 to 100 scale, 0 is no effect, 100 is complete control, read-out: Blackgrass plant response rating): 30% | pest or weed control at 125 g/ha ([11]; 125 g ai/ha, visual rating after approx. 10 d, 0 to 100 scale (0 no effect, 100 complete control), read-out: Plant response rating, Galium): 80% | pest or weed control at 500 g/ha ([11]; 500 g ai/ha, 0 to 100 scale, 0 is no effect, 100 is complete control, read-out: Galium plant response rating): 90%
